Experimental findings from patent US20260098061A1, “EPHA2-BINDING PENDING PEPTIDE AND COMPOSITION COMPRISING SAME” (PeptiDream Inc., priority 2022, published 2026) are described below.

Numbered stars: 1 amine (or outer) side, 2 acyl side, 3 side chain; on linkers, the order of the positions; unused ones are H or OH. Bridge positions count the residues as written; N and C are the ends. Square brackets hold non-standard residues; d marks the D form. Side chains are listed from the residue outwards. Peptide text beside a SMILES is read from it. * marks the point of attachment. NH(1-deoxy-D-glucityl) = OC[C@@H](O)[C@@H](O)[C@H](O)[C@@H](O)CN*; Trp(1-Me,7-Cl) = Cn1cc(C[C@H](N)C(=O)O)c2cccc(Cl)c21; Ala(2-NH2-4-pyridyl) = Nc1cc(C[C@H](N)C(=O)O)ccn1; dPhe(3-CONH2) = NC(=O)c1cccc(C[C@@H](N)C(=O)O)c1; Piperazinyl(4-CH2COOH) = O=C(O)CN1CCN(*)CC1; Trp(1-Me) = Cn1cc(C[C@H](N)C(=O)O)c2ccccc21; NMehCit = CN[C@@H](CCCCNC(N)=O)C(=O)O; NMe3Pal = CN[C@@H](Cc1cccnc1)C(=O)O; NMeF = CN[C@@H](Cc1ccccc1)C(=O)O; hCit = NC(=O)NCCCC[C@H](N)C(=O)O; Gly(cBu) = N[C@H](C(=O)O)C1CCC1; NMeE = CN[C@@H](CCC(=O)O)C(=O)O; Aad = N[C@@H](CCCC(=O)O)C(=O)O; CO = O=C([*:1])[*:2]; βAla = NCCC(=O)O A value given as a limit tells only on which side of the number the result lay.

The experiment deals with T1, Recombinant Human EphA2 Fc Protein (Homo sapiens, UniProt P29317).
T1 construct: purchased Elabscience
Briefly: SPR interaction analysis (Biacore T200), kinetics of peptides against EphA2. The format is binding. Conditions: Recombinant Human EphA2 Fc Protein captured by Human Antibody Capture kit; single-cycle kinetics; 25° C.; HBS-P+ buffer with 1% DMSO. As for the experimental part:
Example 14 Interaction Analysis by SPR was Performed Using Biacore (Cytiva)
SPR assay was performed using Biacore T200 (Cytiva).
The HBS-P+ buffer (10 mM HEPES (pH7.4), 150 mM NaCl, 0.05% (v/V) Surfactant P20) containing 1% DMSO was used as running buffer. Recombinant Human EphA2 Fc Protein (Fc tag, Elabscience) was captured by Human Antibody Capture kit (Cytiva). Peptide samples in DMSO were diluted with running buffer, and prepared five serial dilutions. Using these serial dilutions, kinetics of peptides against EphA2 was measured at a flow rate of 30 mL/min at 25° C. The method adopted for sample measurement was a single-cycle kinetics method. The analysis was conducted using the evaluation software 3.0 provided with Biacore T200. Kinetics fitting was done on the difference data obtained by subtracting the baseline data from sample measurement data. KD values were calculated based on the association rate constant (ka) and dissociation rate constant (kd).
Background: Surface plasmon resonance follows binding to a sensor surface in real time, without labels.
The Kd is the free concentration of one partner at which half of the binding sites on the other are occupied at equilibrium, for simple one-to-one binding. On to `CC(C)C[C@@H]1NC(=O)[C@H](CC(N)=O)NC(=O)[C@H](Cc2cccnc2)N(C)C(=O)[C@@H](C)NC(=O)CSC[C@@H](C(N)=O)NC(=O)[C@H](CC(=O)N(C)C)NC(=O)[C@H]([C@@H](C)O)NC(=O)[C@H](Cc2cn(C)c3ccccc23)NC(=O)[C@H](CCCCNC(=O)N2CCN(CC(=O)O)CC2)NC(=O)[C@H](Cc2cn(C)c3ccccc23)NC(=O)[C@H](Cc2ccccc2)N(C)C(=O)[C@H](CCCC(=O)O)NC1=O` [PDC_EphA2-00018529, da-Me3Py-N-L-Hgl-MeF-W1Me-KCOpipzaa-W1Me-T-Ndm-C-NH2] ({CH2CO}-[dA][NMe3Pal]NL[Aad][NMeF][Trp(1-Me)]K([CO-Piperazinyl(4-CH2COOH)])[Trp(1-Me)]TD(NMe2)C-NH2; thioether N-12), for which the dissociation constant (Kd) is less than 1 nM. With `C[C@@H](O)[C@@H]1NC(=O)[C@H](Cc2cn(C)c3ccccc23)NC(=O)[C@H](CCC(=O)NC[C@H](O)[C@@H](O)[C@H](O)[C@H](O)CO)NC(=O)[C@H](Cc2cn(C)c3c(Cl)cccc23)NC(=O)[C@H](Cc2cccnc2)N(C)C(=O)[C@H](CCCC(N)=O)NC(=O)[C@H](C2CCC2)NC(=O)[C@H](CC(N)=O)NC(=O)[C@H](Cc2ccccc2)N(C)C(=O)[C@@H](Cc2cccc(C(N)=O)c2)NC(=O)CSC[C@@H](C(N)=O)NC(=O)[C@H](CCCC(N)=O)NC1=O` [PDC_EphA2-00019435, df3CON-MeF-N-Cbg-Hgn-Me3Py-W1Me7Cl-Qglucamine-W1Me-T-Hgn-C-NH2] ({CH2CO}-[dPhe(3-CONH2)][NMeF]N[Gly(cBu)][Aad](NH2)[NMe3Pal][Trp(1-Me,7-Cl)]E(NH(1-deoxy-D-glucityl))[Trp(1-Me)]T[Aad](NH2)C-NH2; thioether N-12), the Kd was less than 1 nM. Take `CN1C(=O)[C@H](CO)NC(=O)[C@H](C2CCC2)NC(=O)[C@H](CC(N)=O)NC(=O)[C@H](Cc2cccnc2)N(C)C(=O)[C@@H](Cc2cccc(C(N)=O)c2)NC(=O)CSC[C@@H](C(N)=O)NC(=O)[C@H](Cc2cn(C)c3ccccc23)NC(=O)[C@H](CCCCNC(N)=O)NC(=O)[C@H](Cc2cn(C)c3c(Cl)cccc23)NC(=O)[C@@H]1Cc1cccnc1` [PDC_EphA2-00026602, df3CON-Me3Py-N-Cbg-S-Me3Py-W1Me7Cl-Hcit-W1Me-C-NH2] ({CH2CO}-[dPhe(3-CONH2)][NMe3Pal]N[Gly(cBu)]S[NMe3Pal][Trp(1-Me,7-Cl)][hCit][Trp(1-Me)]C-NH2; thioether N-10): the Kd is less than 1 nM. For the molecule `C[C@H]1NC(=O)CSC[C@@H](C(N)=O)NC(=O)[C@H](CCCC(N)=O)NC(=O)[C@H]([C@@H](C)O)NC(=O)[C@H](Cc2cn(C)c3ccccc23)NC(=O)[C@H](CCCCNC(=O)N2CCN(CC(=O)O)CC2)NC(=O)[C@H](Cc2cn(C)c3ccccc23)NC(=O)[C@H](CC(N)=O)NC(=O)[C@H](CCCC(N)=O)NC(=O)[C@H](C2CCC2)NC(=O)[C@H](CC(N)=O)NC(=O)[C@H](Cc2cccnc2)N(C)C1=O` [PDC_EphA2-00010000, da-Me3Py-N-Cbg-Hgn-N-W1Me-KCOpipzaa-W1Me-T-Hgn-C-NH2] ({CH2CO}-[dA][NMe3Pal]N[Gly(cBu)][Aad](NH2)N[Trp(1-Me)]K([CO-Piperazinyl(4-CH2COOH)])[Trp(1-Me)]T[Aad](NH2)C-NH2; thioether N-12), the Kd is less than 1 nM. Take `CC(C)C[C@@H]1NC(=O)[C@H](Cc2ccnc(N)c2)NC(=O)[C@H](Cc2ccccc2)NC(=O)CSC[C@@H](C(N)=O)NC(=O)[C@H](Cc2cn(C)c3ccccc23)NC(=O)[C@H](Cc2ccccc2)N(C)C(=O)[C@H](Cc2cn(C)c3ccccc23)NC(=O)[C@H](CCCCNC(N)=O)N(C)C1=O` [PDC_EphA2-00026481, F-4Py2NH2-L-MeHcit-W1Me-MeF-W1Me-C-NH2] ({CH2CO}-F[Ala(2-NH2-4-pyridyl)]L[NMehCit][Trp(1-Me)][NMeF][Trp(1-Me)]C-NH2; thioether N-8): the Kd lay in the range of 100 to 400 nM.

`CC(=O)NCCCC[C@@H](NC(=O)CCNC(=O)[C@@H]1CSCC(=O)N[C@H](C)C(=O)N(C)[C@@H](Cc2cccnc2)C(=O)N[C@@H](CC(N)=O)C(=O)N[C@@H](CC(C)C)C(=O)N[C@@H](CCCCNC(=O)N2CCN(CC(=O)O)CC2)C(=O)N(C)[C@@H](Cc2ccccc2)C(=O)N[C@@H](Cc2cn(C)c3ccccc23)C(=O)N[C@@H](CCCCNC(=O)N2CCN(CC(=O)O)CC2)C(=O)N[C@@H](Cc2cn(C)c3ccccc23)C(=O)N[C@@H]([C@@H](C)O)C(=O)N[C@@H](CCC(=O)O)C(=O)N1)C(N)=O` [PDC_EphA2-00008088, da-Me3Py-N-L-KCOpipzaa-MeF-W1Me-KCOpipzaa-W1Me-T-E-C-bA-dkAc-NH2] ({CH2CO}-[dA][NMe3Pal]NLK([CO-Piperazinyl(4-CH2COOH)])[NMeF][Trp(1-Me)]K([CO-Piperazinyl(4-CH2COOH)])[Trp(1-Me)]TEC[βAla][dK](Ac)-NH2; thioether N-12): the Kd is less than 1 nM. `CC(C)C[C@@H]1NC(=O)[C@H](CC(N)=O)NC(=O)[C@H](Cc2cccnc2)N(C)C(=O)[C@@H](C)NC(=O)CSC[C@@H](C(N)=O)NC(=O)[C@H](CC(=O)N(C)C)NC(=O)[C@H]([C@@H](C)O)NC(=O)[C@H](Cc2cn(C)c3ccccc23)NC(=O)[C@H](CCCCNC(=O)N2CCN(CC(=O)O)CC2)NC(=O)[C@H](Cc2cn(C)c3ccccc23)NC(=O)[C@H](CCC(=O)O)N(C)C(=O)[C@H](CCCC(N)=O)NC1=O` [PDC_EphA2-00018534, da-Me3Py-N-L-Hgn-MeE-W1Me-KCOpipzaa-W1Me-T-Ndm-C-NH2] ({CH2CO}-[dA][NMe3Pal]NL[Aad](NH2)[NMeE][Trp(1-Me)]K([CO-Piperazinyl(4-CH2COOH)])[Trp(1-Me)]TD(NMe2)C-NH2; thioether N-12): the Kd was less than 1 nM. On to `CC(=O)NCCCC[C@H](NC(=O)[C@@H]1CSCC(=O)N[C@@H](Cc2ccccc2)C(=O)N[C@@H](Cc2c[nH]cn2)C(=O)N[C@@H](CC(N)=O)C(=O)N[C@@H](CC(C)C)C(=O)N[C@@H](CO)C(=O)N(C)[C@@H](Cc2ccccc2)C(=O)N[C@@H](Cc2cn(C)c3ccccc23)C(=O)N[C@@H](CCCCNC(N)=O)C(=O)N[C@@H](Cc2cn(C)c3ccccc23)C(=O)N1)C(N)=O` [PDC_EphA2-00022607, F-H-N-L-S-MeF-W1Me-Hcit-W1Me-C-KAc-NH2] ({CH2CO}-FHNLS[NMeF][Trp(1-Me)][hCit][Trp(1-Me)]CK(Ac)-NH2; thioether N-10), for which the Kd fell in the range of 10 to 100 nM. As for `CN1C(=O)[C@H](CCC(=O)NC[C@H](O)[C@@H](O)[C@H](O)[C@H](O)CO)NC(=O)[C@H](C2CCC2)NC(=O)[C@H](CC(N)=O)NC(=O)[C@H](Cc2cccnc2)N(C)C(=O)[C@@H](Cc2cccc(C(N)=O)c2)NC(=O)CSC[C@@H](C(N)=O)NC(=O)[C@H](Cc2cn(C)c3ccccc23)NC(=O)[C@H](CCC(=O)NC[C@H](O)[C@@H](O)[C@H](O)[C@H](O)CO)NC(=O)[C@H](Cc2cn(C)c3c(Cl)cccc23)NC(=O)[C@@H]1Cc1cccnc1` [PDC_EphA2-00026604, df3CON-Me3Py-N-Cbg-Qglucamine-Me3Py-W1Me7Cl-Qglucamine-W1Me-C-NH2] ({CH2CO}-[dPhe(3-CONH2)][NMe3Pal]N[Gly(cBu)]E(NH(1-deoxy-D-glucityl))[NMe3Pal][Trp(1-Me,7-Cl)]E(NH(1-deoxy-D-glucityl))[Trp(1-Me)]C-NH2; thioether N-10), the Kd is less than 1 nM. With `CC(C)C[C@@H]1NC(=O)[C@H](CC(N)=O)NC(=O)[C@H](Cc2cccnc2)N(C)C(=O)[C@@H](C)NC(=O)CSC[C@@H](C(N)=O)NC(=O)[C@H](CCCC(N)=O)NC(=O)[C@H]([C@@H](C)O)NC(=O)[C@H](Cc2cn(C)c3ccccc23)NC(=O)[C@H](CCCCNC(=O)N2CCN(CC(=O)O)CC2)NC(=O)[C@H](Cc2cn(C)c3ccccc23)NC(=O)[C@H](CCC(=O)O)N(C)C(=O)[C@H](CCCC(N)=O)NC1=O` [PDC_EphA2-00010008, da-Me3Py-N-L-Hgn-MeE-W1Me-KCOpipzaa-W1Me-T-Hgn-C-NH2] ({CH2CO}-[dA][NMe3Pal]NL[Aad](NH2)[NMeE][Trp(1-Me)]K([CO-Piperazinyl(4-CH2COOH)])[Trp(1-Me)]T[Aad](NH2)C-NH2; thioether N-12), the Kd was less than 1 nM. As to `CNC(=O)C[C@@H]1NC(=O)[C@H]([C@@H](C)O)NC(=O)[C@H](Cc2cn(C)c3ccccc23)NC(=O)[C@H](CCCCNC(=O)N2CCN(CC(=O)O)CC2)NC(=O)[C@H](Cc2cn(C)c3ccccc23)NC(=O)[C@H](Cc2ccccc2)N(C)C(=O)[C@H](CCCC(=O)O)NC(=O)[C@H](CC(C)C)NC(=O)[C@H](CC(N)=O)NC(=O)[C@H](Cc2cccnc2)N(C)C(=O)[C@@H](C)NC(=O)CSC[C@@H](C(N)=O)NC1=O` [PDC_EphA2-00018528, da-Me3Py-N-L-Hgl-MeF-W1Me-KCOpipzaa-W1Me-T-Nmm-C-NH2] ({CH2CO}-[dA][NMe3Pal]NL[Aad][NMeF][Trp(1-Me)]K([CO-Piperazinyl(4-CH2COOH)])[Trp(1-Me)]TD(NHMe)C-NH2; thioether N-12), the Kd was less than 1 nM. On to `CN1C(=O)[C@H](CCCC(N)=O)NC(=O)[C@H](C2CCC2)NC(=O)[C@H](CC(N)=O)NC(=O)[C@H](Cc2cccnc2)N(C)C(=O)[C@@H](Cc2cccc(C(N)=O)c2)NC(=O)CSC[C@@H](C(N)=O)NC(=O)[C@H](Cc2cn(C)c3ccccc23)NC(=O)[C@H](CCCCNC(=O)N2CCN(CC(=O)O)CC2)NC(=O)[C@H](Cc2cn(C)c3c(Cl)cccc23)NC(=O)[C@@H]1CCC(=O)O` [PDC_EphA2-00026606, df3CON-Me3Py-N-Cbg-Hgn-MeE-W1Me7Cl-KCOpipzaa-W1Me-C-NH2] ({CH2CO}-[dPhe(3-CONH2)][NMe3Pal]N[Gly(cBu)][Aad](NH2)[NMeE][Trp(1-Me,7-Cl)]K([CO-Piperazinyl(4-CH2COOH)])[Trp(1-Me)]C-NH2; thioether N-10), for which the Kd is less than 1 nM.
